The text below walks through data of patent US9657018B2, “Antagonists acting at multiple prostaglandin receptors for the treatment of inflammation” (Allergan, Inc., priority 2014, dated 2017).

Structures can show the parent of a compound that is named as a salt.

Assay type in all cases: cell-based
Assay [1] has as its target T1, human prostanoid DP1 receptor (Homo sapiens, UniProt Q13258).
T1 construct: expressed in transfected cells
T1 sequence (Q13258 1-359): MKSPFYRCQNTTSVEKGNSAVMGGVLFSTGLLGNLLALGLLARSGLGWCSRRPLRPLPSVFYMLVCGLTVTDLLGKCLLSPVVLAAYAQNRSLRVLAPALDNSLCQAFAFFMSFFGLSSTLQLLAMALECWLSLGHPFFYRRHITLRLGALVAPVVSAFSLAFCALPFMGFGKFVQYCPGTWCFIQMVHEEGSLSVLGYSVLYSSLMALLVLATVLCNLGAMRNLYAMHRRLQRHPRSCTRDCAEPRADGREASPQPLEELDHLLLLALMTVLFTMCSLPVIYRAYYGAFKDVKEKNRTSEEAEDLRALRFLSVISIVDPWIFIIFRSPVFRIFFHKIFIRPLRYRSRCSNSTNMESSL
In words: FLIPR Ca2+ signaling antagonist assay, DP1 receptor stable cell line. Also on record: key to FLIPR data DP1 (Kb): PAg = partial agonist; Ag = agonist; NA = not active. Particulars: human recombinant DP1 + chimeric Gqs in HEK-293 EBNA cells; standard agonist BW 245C; NA = no antagonism or Kb>=10,000 nM. How it is done:
(§1) The above compounds were tested for PG antagonist activity as follows using human recombinant prostanoid receptor (DP1, EP1-4, FP, IP and TP) stable cell lines:
(§2) In order to measure the response of Gs and Gi coupled prostanoid receptors as a Ca^2+ signal, chimeric G protein cDNAs were used. Stable cell lines over-expressing human prostanoid DP1, EP1-4, FP, IP, and TP receptors were established as follows:
(§3) Briefly, human prostanoid DP1, EP2, and EP4 receptor cDNAs were co-transfected with chimeric Gqs cDNA containing a haemagglutanin (HA) epitope; human prostanoid EP3 receptors were co-transfected with chimeric Gqi-HA; human EP1, FP, IP, and TP receptor cDNAs were expressed with no exogenous G-proteins. Gqs and Gqi chimeric cDNAs (Molecular Devices, Sunnyvale, Calif., U.S.A.), as well as cDNAs of prostanoid receptors, were cloned into a pCEP4 vector with a hygromycin B selection marker. Transfection into HEK-293 EBNA (Epstein-Barr virus nuclear antigen) cells was achieved by the FuGENE 6 transfection Reagent (Roche Applied Science, Indianapolis, Ind., USA). Stable transfectants were selected according to hygromycin resistance. Because Gqs and Gqi contained an HA epitope, G-protein expression was detected by Western blotting analysis using anti-mouse HA monoclonal antibody and horseradish peroxidase (HRP)-conjugated secondary antibody, while functional expression of prostanoid receptors was detected by FLIPR screening (Matias et al., 2004). These stable cell lines were validated using previously published antagonists at 10 μM against serial dilutions of standard agonists by FLIPR functional assays for Ca^2+ Signaling (as described below).
(§4) Ca^2+ signaling studies were performed using a FLIPR TETRA system (Molecular Devices, Sunnyvale, Calif., USA) in the 384-format. This is a high-throughput instrument for cell-based assays to monitor Ca^2+ signaling associated with GPCRs and ion channels. Cells were seeded at a density of 5×10^4 cells/well in BioCoat poly-D-lysine coated, black wall, clear bottom 384-well plates (BD Biosciences, Franklin lakes, NJ, USA) and allowed to attach overnight in an incubator at 37° C. The cells were then washed twice with HBSS-HEPES buffer (Hanks' balanced salt solution without bicarbonate and phenol red, 20 mM HEPES, pH 7.4) using an ELx405 Select CW Microplate Washer (BioTek, Winooski, Vt., USA). After 60 min of dye-loading in the dark using the Ca^2+-sensitive dye Fluo-4AM (Invitrogen, Carlsbad, Calif., USA), at a final concentration of 2×10^−6M, the plates were washed 4 times with HBSS-HEPES buffer to remove excess dye and leaving 50 μl of buffer in each well. The plates were then placed in the FLIPR TETRA instrument and allowed to equilibrate at 37° C. AGN-211377 was added in a 25 μl volume to each well to give final concentrations of 0.1 μl. M, 0.4M, 1 μM, 3 μl. M, 10 μl. M, and 30 μl. M; or 0.067 μM, 0.4M, 0.67 μM, and 1 μM for cells over-expressing TP receptors. After 4.5 minutes, a 7-point serial dilution of the standard agonist for the corresponding receptor, in a 25 μl volume was injected at the final concentrations from 10^−11M to 10^−5M in 10-fold serial dilution increments for cells expressing human recombinant DP1, EP1, EP2, EP3, EP4, FP, and IP receptors. The dose range for the standard agonist for human recombinant TP receptors was from 10^−12M to 10^−6M. HBSS-HEPES buffer was used as the negative control for the standard agonists. Cells were excited with LED (light emitting diode) excitation at 470-495 nm and emission was measured through an emission filter at 515-575 nm. Assay plates were read for 3.5 minutes using the FLIPR^TETRA. The peak increase in fluorescence intensity was recorded for each well. On each plate, negative controls, dose response of positive controls, and co-treatments of antagonist-agonist for each dose were in triplicates. Standard agonists were as follows: DP=BW 245C, EP1-EP4=PGE2, FP=17-phenyl-PGF2a, IP=Cicaprost, and TP=U-46619. […]

Assay [2] has as its target T2, human prostanoid EP3 receptor (Homo sapiens, UniProt P43115).
T2 construct: expressed in transfected cells
T2 sequence (P43115 1-390): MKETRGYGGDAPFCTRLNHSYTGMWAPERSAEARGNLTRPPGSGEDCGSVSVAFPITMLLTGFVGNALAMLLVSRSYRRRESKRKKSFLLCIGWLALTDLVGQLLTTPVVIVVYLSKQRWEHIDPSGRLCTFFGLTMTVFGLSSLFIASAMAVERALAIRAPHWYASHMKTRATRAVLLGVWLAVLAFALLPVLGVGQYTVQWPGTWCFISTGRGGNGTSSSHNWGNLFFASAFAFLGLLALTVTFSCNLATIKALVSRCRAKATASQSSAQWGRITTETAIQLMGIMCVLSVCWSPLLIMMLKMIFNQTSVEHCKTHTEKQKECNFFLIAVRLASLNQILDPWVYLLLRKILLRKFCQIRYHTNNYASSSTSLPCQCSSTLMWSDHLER
In words: FLIPR Ca2+ signaling antagonist assay, EP3 receptor stable cell line. The following applies: human recombinant EP3 + chimeric Gqi in HEK-293 EBNA cells; standard agonist PGE2; NA = no antagonism or Kb>=10,000 nM. Here is the method: as §1, §2, §3, §4

In assay [3] the target is T3, human prostanoid EP4 receptor (Homo sapiens, UniProt P35408).
T3 construct: expressed in transfected cells
As to the kind of experiment: FLIPR Ca2+ signaling antagonist assay, EP4 receptor stable cell line. The following applies: human recombinant EP4 + chimeric Gqs in HEK-293 EBNA cells; standard agonist PGE2; NA = no antagonism or Kb>=10,000 nM. How it is done: as §1, §2, §3, §4

For assay [4], the target named is T4, human prostanoid IP receptor (Homo sapiens, UniProt P43119).
T4 construct: expressed in transfected cells
As to the kind of experiment: FLIPR Ca2+ signaling antagonist assay, IP receptor stable cell line. Also on record: key to FLIPR data IP (Kb): PAg = partial agonist; Ag = agonist; NA = not active. Particulars: human recombinant IP in HEK-293 EBNA cells; standard agonist Cicaprost; NA = no antagonism or Kb>=10,000 nM. Here is the method:
as §1, §2, §3, §4

T4 sequence (P43119 whole entry): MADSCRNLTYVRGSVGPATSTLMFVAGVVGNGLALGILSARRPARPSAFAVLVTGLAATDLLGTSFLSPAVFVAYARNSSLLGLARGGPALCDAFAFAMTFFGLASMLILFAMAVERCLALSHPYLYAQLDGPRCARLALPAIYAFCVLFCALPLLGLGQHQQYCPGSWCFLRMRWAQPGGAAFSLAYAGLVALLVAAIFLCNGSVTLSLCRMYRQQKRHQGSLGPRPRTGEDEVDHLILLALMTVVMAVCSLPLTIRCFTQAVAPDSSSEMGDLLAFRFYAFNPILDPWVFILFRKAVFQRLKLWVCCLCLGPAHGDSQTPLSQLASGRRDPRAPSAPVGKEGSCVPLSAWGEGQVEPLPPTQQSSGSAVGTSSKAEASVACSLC
T3 sequence (P35408 whole entry): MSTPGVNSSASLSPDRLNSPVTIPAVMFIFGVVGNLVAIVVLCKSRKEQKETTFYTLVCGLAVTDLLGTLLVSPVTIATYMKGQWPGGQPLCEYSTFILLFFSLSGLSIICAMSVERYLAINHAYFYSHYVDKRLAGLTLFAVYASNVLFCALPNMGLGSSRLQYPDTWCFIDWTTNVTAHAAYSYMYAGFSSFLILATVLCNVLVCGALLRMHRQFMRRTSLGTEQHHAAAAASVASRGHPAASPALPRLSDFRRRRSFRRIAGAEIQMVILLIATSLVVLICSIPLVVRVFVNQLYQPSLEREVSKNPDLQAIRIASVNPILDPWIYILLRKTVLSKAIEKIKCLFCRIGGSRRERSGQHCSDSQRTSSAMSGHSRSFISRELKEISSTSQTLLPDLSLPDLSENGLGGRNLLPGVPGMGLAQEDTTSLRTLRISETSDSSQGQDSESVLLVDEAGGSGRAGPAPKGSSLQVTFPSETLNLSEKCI

Usually Kb stands for the affinity of an antagonist, worked out from how it opposes an agonist. In the case of `CC(C)Cn1ncc2cc(Cl)cc(Cn3ncc4cc(C(=O)O)ccc43)c21` [Compound 41, 1-(5-Chloro-1-isobutyl-1H-indazol-7-ylmethyl)-1H-indazole-5-carboxylic acid], the antagonist equilibrium constant (Kb) in assay [1] is 460 nM; in assay [2] it was > 10000 nM; in assay [3], 24 nM; in assay [4] it was > 10000 nM.
For the compound `CC(C)Cn1ncc2cc(Br)cc(Cn3ncc4cc(C(=O)O)ccc43)c21` [Compound 42, 1-(5-Bromo-1-isobutyl-1H-indazol-7-ylmethyl)-1H-indazole-5-carboxylic acid], the Kb in assay [1] was 590 nM; in assay [2], > 10000 nM; in assay [3], 22 nM; in assay [4], > 10000 nM.
With `CC(C)Cn1ncc2cc(F)cc(Cn3ncc4cc(C(=O)O)ccc43)c21` [Compound 43, 1-(5-Fluoro-1-isobutyl-1H-indazol-7-ylmethyl)-1H-indazole-5-carboxylic acid], the Kb in assay [1] is 1700 nM; in assay [2], > 10000 nM; in assay [3], 100 nM; in assay [4], > 10000 nM.
In the case of `CC(C)Cn1ncc2cc(C(F)(F)F)cc(Cn3ncc4cc(C(=O)O)ccc43)c21` [Compound 44, 1-(1-Isobutyl-5-trifluoromethyl-1H-indazol-7-ylmethyl)-1H-indazole-5-carboxylic acid], the Kb was 1000 nM in assay [1], > 10000 nM in assay [2] and 28 nM in assay [3]. In addition, the “FLIPR data IP (Kb)” value in assay [4] is reported as “PAg”.
The matching figures for `CC(C)Cn1ncc2cc(OC(F)(F)F)cc(Cn3ncc4cc(C(=O)O)ccc43)c21` [Compound 45, 1-(1-Isobutyl-5-trifluoromethoxy-1H-indazol-7-ylmethyl)-1H-indazole-5-carboxylic acid]: 300 nM, > 10000 nM, 5 nM and “Ag”.
Take `CC(C)n1ncc2cc(Br)cc(Cn3ncc4cc(C(=O)O)ccc43)c21` [Compound 46, 1-(5-Bromo-1-isopropyl-1H-indazol-7-ylmethyl)-1H-indazole-5-carboxylic acid]: the Kb in assay [1] was > 10000 nM; in assay [2], > 10000 nM; in assay [3], 330 nM; in assay [4] it was > 10000 nM.
For `CCC(CC)Cn1ncc2cc(Br)cc(Cn3ncc4cc(C(=O)O)ccc43)c21` [Compound 47, 1-[5-Bromo-1-(2-ethyl-butyl)-1H-indazol-7-ylmethyl]-1H-indazole-5-carboxylic acid], the Kb was 1400 nM in assay [1], > 10000 nM in assay [2], 1700 nM in assay [3] and 1000 nM in assay [4].
For `CCCn1ncc2cc(Cl)cc(Cn3ncc4cc(C(=O)O)ccc43)c21` [Compound 48] the same measures were 5500 nM, > 10000 nM, 130 nM and > 10000 nM.
Regarding `CC(C)Cn1ncc2cc(Cl)cc(Cn3ncc4cc(C(=O)O)cnc43)c21` [Compound 49, 1-(5-Chloro-1-isobutyl-1H-indazol-7-ylmethyl)-1H-pyrazolo[3,4-b]pyridine-5-carboxylic acid], the antagonist equilibrium constant (Kb) was 3500 nM in assay [1], > 10000 nM in assay [2], 90 nM in assay [3] and 8900 nM in assay [4].
Turning to `CC(C)Cn1ncc2cc(Cl)cc(Cn3cnc4cc(C(=O)O)ccc43)c21` [Compound 50, 1-(5-Chloro-1-isobutyl-1H-indazol-7-ylmethyl)-1H-benzoimidazole-5-carboxylic acid], the antagonist dissociation constant (Kb) in assay [1] was > 10000 nM; in assay [2], > 10000 nM; in assay [3] it was 80 nM; in assay [4], > 10000 nM.
Consider `CC(C)Cn1ncc2cc(Cl)cc(Cn3cnc4cc(C(=O)O)cnc43)c21` [Compound 51, 3-(5-Chloro-1-isobutyl-1H-indazol-7-ylmethyl)-3H-imidazo[4,5-b]pyridine-6-carboxylic acid], for which the Kb in assay [1] was > 10000 nM; in assay [2] it was > 10000 nM; in assay [3] it was 280 nM; in assay [4], 8000 nM.
Take `CC(C)Cn1ncc2cc(Cl)cc(Cn3ccc4cc(C(=O)O)cnc43)c21` [Compound 52, 1-(5-Chloro-1-isobutyl-1H-indazol-7-ylmethyl)-1H-pyrrolo[2,3-b]pyridine-5-carboxylic acid]: the “FLIPR data DP1 (Kb)” value in assay [1] was “Ag”. The figures for the Kb in assay [2], in assay [3] and in assay [4] were 3400 nM, 90 nM and 5500 nM, respectively.
As to `Cc1nn(Cc2cc(Br)cc3cnn(CC(C)C)c23)c2ccc(C(=O)O)cc12` [Compound 53, 1-(5-Bromo-1-isobutyl-1H-indazol-7-ylmethyl)-3-methyl-1H-indazole-5-carboxylic acid], the Kb is 640 nM in assay [1], > 10000 nM in assay [2], 90 nM in assay [3] and > 10000 nM in assay [4].
As to `Cc1nn(Cc2cc(Br)cc3cnn(CC(C)C)c23)c2ncc(C(=O)O)cc12` [Compound 54, 1-(5-Bromo-1-isobutyl-1H-indazol-7-ylmethyl)-3-methyl-1H-pyrazolo[3,4-b]pyridine-5-carboxylic HCl salt], the antagonist dissociation constant (Kb) in assay [1] is 200 nM; in assay [2], > 10000 nM; in assay [3] it was 380 nM; in assay [4] it was 9500 nM.
Turning to `CC(C)Cn1ncc2cc(C(F)(F)F)cc(Cn3cnc4cc(C(=O)O)ccc43)c21` [Compound 55, 1-(1-Isobutyl-5-trifluoromethyl-1H-indazol-7-ylmethyl)-1H-benzoimidazole-5-carboxylic acid], the Kb in assay [1] was > 10000 nM; in assay [2] it was > 10000 nM; in assay [3], 80 nM; in assay [4], 8900 nM.
